For 89 compounds, melting point results are on record in a melting point compilation (Tetko et al.; mined from patent text by program, amines drawn as free bases though some values may be those of a salt).

Residues, ends and D or L forms follow the SMILES beside them. *: point of attachment. Boc = CC(C)(C)OC(=O)*; Bn = c1ccc(C*)cc1 A value given as a limit tells only on which side of the number the result lay.

Regarding `CCOC(=O)/C=C/c1cc(C(C)C)c(OC(C)=O)c2c(C)cccc12`, the melting point was in the range of 122 to 123 °C.
On to `CCC(C#Cc1cccc(Oc2ccccn2)c1)N(O)C(N)=O` (centres undefined), for which the melting point is 96 to 98 °C.
Consider `COC(=O)CCC(C)C1CCC2C3=CC=C4C(C)(C)C(O)CCC4(C)C3CCC21C` (centres undefined), for which the melting point is 124 to 128 °C.
For the compound `CC1(C)Oc2ccc(C#N)cc2C(OC(=O)C2CCCN2S(=O)(=O)c2ccc(Cl)cc2)C1Br` (centres undefined), the melting point is 178 to 180 °C.
`CCNC(=O)Nc1nc2cc(-c3cccnc3)cc(N3CCOCC3)n2n1` yielded a melting point of 298 to 300 °C.
For the compound `CC(C)c1nn(Cc2ccc(Cl)cc2Cl)cc1CCCO`, the melting point lay in the range of 68 to 69 °C.
With `Clc1cc(N2CCCC2)nc(N2CCNCC2)n1` the figure was 77 to 92 °C.
In the case of `CCCCN(CCCC)CCCOc1ccc(-c2cn3cccc(C)c3n2)cc1C`, the melting point lay within 63 to 66 °C.
The compound `COc1ncc(C(F)(F)F)cc1-c1cccn2nc(Cl)nc12` came in with a melting point of 183 to 185 °C.
On to `CCCCOc1ccc(C(=O)Nc2ccc3cc(CN4CCCC4C)cnc3c2C)cc1` (centres undefined), for which the melting point was in the range of 153 to 156 °C.
In the case of `COC(=O)C(CC(C)C)NC(=O)C(C)NC(=O)C(Cc1ccc(OCc2ccccc2)cc1)NC(=O)OC(C)(C)C` (stereo not drawn) (Boc-Tyr(Bn)-Ala-Leu-OMe; configuration not given here), the melting point was 128 to 129 °C.
With `CCN(CC)CCN1C(=O)c2cc(Cl)c(S(N)(=O)=O)cc2C1=O` the figure was 152 to 154 °C; with `CCC(C)C(C(=O)NS(C)(=O)=O)c1nc(OC)cc(OC)n1` (centres undefined), 97 to 101 °C; with `CCOc1ccc2[nH]c(=O)n(-c3ccc(OC)cc3)c2c1`, 98 °C.
On to `Cc1cc(C(=O)N2Cc3cccn3Cc3ccccc32)ccc1N`, for which the melting point was 232 to 234 °C.
With `COC(=O)c1sc2ccc(N)cc2c1N` the figure was 128 to 130 °C; with `COc1ccc(C=CC(=O)C(CCC(=O)O)(Cc2ccccc2Cl)c2ccccc2)cc1` (centres undefined), 152 to 157 °C; with `C=Cc1cc(C)cc(C)c1C1=C(O)C2(CCN(OC)CC2)N(C)C1=O`, 158 to 161 °C.
As to `CC1(C)Oc2ccc(S(=O)(=O)C(F)(F)F)cc2[C@@H](N2Cc3ccccc3C2=O)[C@@H]1O` (relative stereo), the melting point is 279 to 281 °C.
Compound `CCn1c(=O)c2[nH]c(/C=C/c3ccc(OCOC)cc3)nc2n(CC)c1=O` came in with a melting point of 270 to 271 °C.
Take `CC(=O)NCc1ccc(C(C)O)cc1` (centres undefined): the melting point lay in the range of 61 to 62 °C.
`CCc1nc(-c2ccc(N3CCN(C(=O)c4ccccc4C(F)(F)F)CC3)nn2)no1`: the melting point was 204 °C.
With `CCN(CC)C(=O)NC1CC2c3cccc4[nH]c(C(C)=O)c(c34)CC2N(C)C1` (centres undefined) the figure was 114 to 116 °C; with `Oc1c(F)cc(Cn2cnnc2S)cc1F`, 184 to 185 °C; with `CC1Cc2cc(Cl)c(Cl)cc2C(c2ccc([N+](=O)[O-])cc2)=NN1` (centres undefined), 182 to 184 °C.
`O=C(Cn1c(-c2ccc(F)cc2)ncc(NC(=O)OCc2ccccc2)c1=O)NC(Cc1ccccc1)C(=O)C(F)(F)F` (centres undefined) gave a melting point of 103 to 107 °C.
`CSC(=O)Cn1c(=O)sc2ccccc21`: the melting point fell in the range of 146 to 147 °C.
With `CN(C)c1ccc(-n2c(CC(=O)O)c(C(=O)O)c3cc(Oc4ccc(OC(F)(F)F)cc4)ccc32)cc1` the figure was 188 to 192 °C; with `C=CCC(C(=O)NCC#CCN(C)C)(c1ccccc1)c1ccccc1`, 107 to 109 °C.
Compound `c1cc(NC2=NCCN2)ccc1Cc1cc(OC2CCCC2)cs1` came in with a melting point of 142 to 143 °C.
With `COc1ccc(CCC(=O)O)cc1C(=O)NCc1cccnc1`, the melting point lay in the range of 175 to 176 °C.
In turn, `Cn1c(-c2ccccc2)c(C2=CCC(C(=O)O)CC2)c2ccccc21` (centres undefined) displayed a melting point of 171 to 172 °C.
Take `CC1(C)NC(C)(C)c2ccccc21`: the melting point was 36 to 38 °C.
For the compound `COCc1cc(Cl)cc2c1OC(C(F)(F)F)C(C(=O)O)=C2` (centres undefined), the melting point fell in the range of 167 to 168 °C.
In turn, `CN1c2ccc(Cl)cc2C(c2ccccc2Br)=Nc2cccnc21` displayed a melting point of 121 to 123 °C.
Compound `CNC1=Nc2ccc(C3=NNC(=O)CC3)cc2C1(C)C` showed a melting point of 320 to 324 °C.
As for `COc1ccc(/C=C/c2cc(/C=C/c3c[nH]c4ccccc34)n[nH]2)cc1OCc1ccccn1`, the melting point was 232 to 243 °C.
Consider `CC(=O)C(=CN(C)C)C(=O)c1ccccc1`, for which the melting point lay in the range of 81 to 83 °C.
For the compound `CCCC(=O)Nc1n[nH]c2cc(C(F)(F)F)ccc12`, the melting point came out at 200 °C.
Compound `CCCCCCOc1cc(C(=O)O)cc(N)c1C(=O)c1ccccc1` had a melting point of 168 °C.
As to `C=CCC(CC=C)(CC=C)c1ccc(-c2nc3cc(C#N)c(C#N)cc3[nH]2)cc1`, the melting point was 264 to 266 °C.
As for `CCCN1CCc2c(cccc2NC(=O)c2ccc(OC)c(OC)c2)C1`, the figure is 146 to 147 °C; as for `Cc1ccc2c(c1)CNCC2c1ccc(O)c(O)c1` (centres undefined), 192 to 195 °C; as for `FC(F)(F)/C(=C(\c1ccccc1)c1ccc(OCc2ccccc2)cc1)c1ccccc1`, 128 to 129 °C.
Compound `Sc1nccn1Cc1c(Cl)cccc1Cl` gave a melting point of 242 to 243 °C.
Consider `CCS(=O)(=O)c1ccc(Oc2ccc3c(c2)OCO3)nc1`, for which the melting point was in the range of 97 to 99 °C.
As to `O=C(Nc1c[nH]nc1C(=O)NCc1ccco1)c1ccccn1`, the melting point is 198 to 199 °C.
Compound `COc1ccccc1Cc1nc2n(c1Cc1ccccc1OC)CCS2` gave a melting point of 212 to 213 °C.
`Cc1cccc(OC(=O)N2CCCC2=O)c1`: the melting point is 58 to 59 °C.
With `COc1ccc(CNc2cc[nH]n2)cc1OC1CCCC1` the figure was 106 to 110 °C; with `COc1cccc2c(Cl)nc(C)nc12`, 101 to 102 °C; with `Clc1ccc2nc(N3CCN(c4c(Cl)cncc4Cl)CC3)[nH]c2c1`, 258 to 260 °C.
For the compound `Nc1ccc(C=CC2CSC(=O)NN2)cc1` (centres undefined), the melting point was in the range of 188 to 196 °C.
On to `CCOc1cc(-c2cc(C(F)(F)F)n3ncc(C(=O)Nc4cc(S(N)(=O)=O)sc4Cl)c3n2)ccc1C(F)(F)F`, for which the melting point amounted to 281 °C.
As to `O=C(OCc1c(Cl)ccc2cc(Cl)cnc12)c1ccccc1[N+](=O)[O-]`, the melting point was found to be 152 °C.
Turning to `CCC1CCN(C(=O)C(N)CCSCc2cn(C(c3ccccc3)(c3ccccc3)c3ccccc3)cn2)CC1` (centres undefined), the melting point lay in the range of 115 to 120 °C.
As for `COc1ccccc1C1(Cl)C(=O)Nc2cc(C)c(Cl)cc21` (centres undefined), the figure is 254 to 256 °C; as for `COC(=O)CC1Cc2ccc(OC)cc2NC1=O` (centres undefined), 152 to 155 °C; as for `COc1cc(C)nc(NC(=O)NS(=O)(=O)Cc2ccccc2-c2nnc(SC)o2)n1`, 194 to 196 °C.
`Sc1nnc(Cc2ccc(Cl)cc2)o1` registered a melting point of 115 °C.
As for `CC(=O)NC[C@H]1CN(c2ccc(N3CCC(=C(C#N)n4cncn4)CC3)c(F)c2)C(=O)O1`, the melting point lay in the range of 194 to 196 °C.
As for `Cn1c2ccc([N+](=O)[O-])cc2c2cc(C(=O)N3CCOCC3)sc21`, the figure is 250 to 252 °C; as for `O=c1cc(CO)oc(-c2ccccc2)c1O`, 151 to 154 °C.
In turn, `COC(=O)C(CCSC)NC(=O)c1ccc([N+](=O)[O-])cc1-c1cc(C)cc(C)c1` (centres undefined) had a melting point of 122 to 124 °C.
`CCOP(=O)(OCC)c1nc(N2CCCC2)nc(N2CCCC2)n1` gave a melting point of 65 to 69 °C.
Compound `COc1ccccc1C1=Nc2ccc(N3CCCC3)cc2C(=O)C1` yielded a melting point of 312 to 313 °C.
As for `CC(=O)C(C(=O)c1ccc(Cl)cc1)C(=O)c1ccc(C(F)(F)F)cc1[N+](=O)[O-]` (centres undefined), the figure is 102 to 104 °C; as for `CCCC=Cc1c(C(C)C)nc(C(C)C)c(CO)c1-c1ccc(F)c(F)c1`, 105 to 106 °C; as for `CCCCCCCCCc1c(C(=O)O)sc2cc(Br)ccc12`, 126 to 127 °C.
With `CC(C)=CCNc1ncnc2c1nc(N)n2C1OC(CO)C(O)C1O` (centres undefined) the figure was 121 to 124 °C.
`O=C1OCc2c1nc1ccc3c(c1c2-c1ccc2c(c1)OCO2)OCO3` had a melting point of 272 to 274 °C.
Turning to `Cc1cccc(N2CCN(CCc3c(C)nc4ccc(Cl)cn4c3=O)CC2)c1`, the melting point lay within 119 to 120 °C.
`c1ccc(CC[C@H]2CNCCN2)cc1` came in with a melting point of 114 to 115 °C.
Compound `COc1c(C(=O)NC2CN3CCC2CC3)cc(Cl)c2c1CCN2` (centres undefined) displayed a melting point of 107 to 109 °C.
With `CC(CCc1ccccc1)NCC(O)c1cc(C(N)=O)c2[nH]ccc2c1` (centres undefined) the figure was 94 to 100 °C; with `COC(=O)c1ncn(C2OC(COC(=O)c3ccccc3)C(OC(=O)c3ccccc3)C2OC(=O)c2ccccc2)n1` (centres undefined), 137 to 139 °C.
The compound `NCCN1CCN(CC(=O)N2c3ccccc3C(=O)Nc3cccnc32)CC1` showed a melting point of 188 to 190 °C.
With `Cc1nc(CC2CCN(c3ccccc3)CC2)nc(C(=O)NCC(=O)O)c1O` the figure was 141 °C; with `COc1cc2c(c3c1OC(C)(C)C3)C(c1cccc(-c3ccccc3)c1)=NC(C)(C)C2`, 141 to 142 °C.
Regarding `CC(=O)OC1CC2=CCC3C4CCC(C(C)CS(=O)(=O)c5ccccc5)C4(C)CCC3C2(C)C(OC(C)=O)C1` (centres undefined), the melting point is 104 °C.
For `COc1ccc(N2CCN(Cc3n[nH]c4cc(Cl)ccc34)CC2)cc1`, the melting point was in the range of 182 to 184 °C.
As to `CS(=O)(=O)c1ccc(C(=O)c2c(S(C)(=O)=O)noc2C2CC2)c(Cl)c1`, the melting point stood at 150 °C.
In turn, `c1cn(Cc2ccc3[nH]c(C4CC4)nc3c2)cn1` showed a melting point of 184 °C.
As for `NC(=O)Cn1ncc2c1CN=C(c1ccccc1)c1cc(Cl)ccc1-2`, the figure is 218 to 219 °C; as for `O=C(C1CC1)N1CCc2cc(S(=O)(=O)N3CCN(c4cccc(Cl)c4)CC3)ccc21`, 162 to 163 °C.
In turn, `Nc1nc(N)c2ncn(CC/C=C/P(=O)(O)O)c2n1` registered a melting point above 325 °C.
The compound `Clc1ccc2[nH]c3c4ccccc4nc-3c(Cl)c2c1` came in with a melting point of 281 to 282 °C.
Compound `CCCCCCCCCCCCCCCCSC(N)C(CN)C(=O)OC(C)(C)C` (centres undefined) showed a melting point of 46 to 47 °C.
Regarding `CC(C)(C)c1cc(OCCCCC(=O)O)cc(C(C)(C)C)c1`, the melting point lay in the range of 113 to 115 °C.
